The nature of the data set: Preliminary pharmacokinetic characteristic evaluation. Type of data set: in vivo, cynomolgus monkeys. The settings on record: for half-life: cynomolgus monkey, sc, male cynomolgus monkeys, administered subcutaneously at 0.2 mg/kg, plasma, LC-MS; for half-lives: cynomolgus monkeys, administered subcutaneously. As for the experimental part:
Among the above compounds, the principle of modification for long-acting was essentially the same.
The test animals were male cynomolgus monkeys. Two animals were used for each compound. The compounds were administered subcutaneously at a dose of 0.2 mg/kg. Blood samples were collected via intravenous sampling prior to administration (0 h) and at 1 h, 2 h, 3 h, 4 h, 8 h, 12 h, 18 h, 24 h, 48 h, 96 h, 144 h, and 168 h after administration. Plasma samples were obtained by centrifugation. The plasma concentrations of the compounds were respectively determined by liquid chromatography - mass spectrometry (LC-MS).

In general, half-life refers to the time in which the quantity being followed falls by half. As to `CC[C@H](C)[C@H](NC(=O)[C@H](Cc1ccccc1)NC(=O)[C@H](C)NC(=O)C(C)(C)NC(=O)[C@H](CCC(N)=O)NC(=O)[C@H](C)NC(=O)[C@H](CCCCNC(=O)COCCOCCNC(=O)CCC[C@H](NC(=O)CCCCCCCCCCCCCCCCCCC(=O)O)C(=O)O)NC(=O)[C@H](CCCCN)NC(=O)[C@H](CC(=O)O)NC(=O)[C@H](CC(C)C)NC(=O)C(C)(CC(C)C)NC(=O)[C@@H](NC(=O)[C@H](CO)NC(=O)[C@H](Cc1ccc(O)cc1)NC(=O)[C@H](CC(=O)O)NC(=O)[C@H](CO)NC(=O)[C@@H](NC(=O)C(C)(Cc1ccccc1)NC(=O)[C@@H](NC(=O)CNC(=O)[C@H](CCC(N)=O)NC(=O)C(C)(C)NC(=O)[C@@H](N)Cc1ccc(O)cc1)[C@@H](C)O)[C@@H](C)O)[C@@H](C)CC)C(=O)N[C@@H](CCC(=O)O)C(=O)N[C@@H](Cc1ccc(O)cc1)C(=O)N[C@@H](CC(C)C)C(=O)N[C@@H](CC(C)C)C(=O)N[C@@H](CCC(=O)O)C(=O)NCC(=O)NCC(=O)N1CCC[C@H]1C(=O)N[C@@H](CO)C(=O)N[C@@H](CO)C(=O)NCC(=O)N[C@@H](C)C(=O)N1CCC[C@H]1C(=O)N1CCC[C@H]1C(=O)N1CCC[C@H]1C(=O)N[C@@H](CO)C(N)=O` (stereo partly shown) [Compound 2], the half-life was 83.5 h and the half-lives entry was “greater than 80 hours”.
The matching figures for `CC[C@H](C)[C@H](NC(=O)[C@H](Cc1ccccc1)NC(=O)[C@H](C)NC(=O)C(C)(C)NC(=O)[C@H](CCC(N)=O)NC(=O)[C@H](C)NC(=O)[C@H](CCCCNC(=O)COCCOCCNC(=O)CCC[C@H](NC(=O)CCCCCCCCCCCCCCCCCCC(=O)O)C(=O)O)NC(=O)[C@H](CCCCN)NC(=O)[C@H](CC(=O)O)NC(=O)[C@H](CC(C)C)NC(=O)C(C)(CC(C)C)NC(=O)[C@@H](NC(=O)[C@H](CO)NC(=O)[C@H](Cc1ccc(O)cc1)NC(=O)[C@H](CC(=O)O)NC(=O)[C@H](CO)NC(=O)[C@@H](NC(=O)C(C)(Cc1ccccc1F)NC(=O)[C@@H](NC(=O)CNC(=O)[C@H](CCC(N)=O)NC(=O)C(C)(C)NC(=O)[C@@H](N)Cc1ccc(O)cc1)[C@@H](C)O)[C@@H](C)O)[C@@H](C)CC)C(=O)N[C@@H](CCC(=O)O)C(=O)N[C@@H](Cc1ccc(O)cc1)C(=O)N[C@@H](CC(C)C)C(=O)N[C@@H](CC(C)C)C(=O)N[C@@H](CCC(=O)O)C(=O)NCC(=O)NCC(=O)N1CCC[C@H]1C(=O)N[C@@H](CO)C(=O)N[C@@H](CO)C(=O)NCC(=O)N[C@@H](C)C(=O)N1CCC[C@H]1C(=O)N1CCC[C@H]1C(=O)N1CCC[C@H]1C(=O)N[C@@H](CO)C(N)=O` (stereo partly shown) [Compound 6]: 94.7 h and “greater than 80 hours”.

Source of the values: patent EP4806911A1, “TRIPLE AGONIST COMPOUND” (Chengdu Aoda Biotechnology Co., Ltd, priority 2023, dated 2025).
